# Test results reported in patent US20210254056A1, “IDENTIFICATION AND TARGETED MODULATION OF GENE SIGNALING NETWORKS” (CAMP4 THERAPEUTICS CORPORATION, priority 2017, published 2021).
# Read-outs that look alike come from different tables or passages of the source.
# Assays:
# [1] = tested on: primary human hepatocytes
# [2] = tested on: primary human hepatocytes; assay: RNA-seq of primary human hepatocytes treated with 39 small molecules (pilot and validation); settings: for Number (#) of genes having significantly changed expression: pilot RNA-seq study of Example 2, significance: FPKM≥0.5, log 2(fold change)≥1, q-value ≤0.05
# [3] = tested on: Hematopoietic progenitor CD34+ cells; assay: qRT-PCR after inducible (pTRIPZ) shRNA knockdown in CD34+ cells; format: cell-based, human; settings: for RQ, BAG1: relative quantification of BAG1 expression vs puro_shNT; for RQ, BAG1 / RQ, BAX / RQ, GATA1 / RQ, GATA2 / RQ, MDM2: pTRIPZ dox inducible shRNA, B-Actin internal control, Table 81; for RQ, BAX: relative quantification of BAX expression vs puro_shNT; for RQ, GATA1: relative quantification of GATA1 expression vs puro_shNT; for RQ, GATA2: relative quantification of GATA2 expression vs puro_shNT; for RQ, HBB: relative quantification of HBB expression vs puro_shNT; for RQ, HBB / RQ, RPL11 / RQ, RPS19 / RQ, p21 / RQ, p53: inducible pTRIPZ shRNA, CD34+ cells, B-ACTIN, Table 80; for RQ, MDM2: relative quantification of MDM2 expression vs puro_shNT; for RQ, RPL11: relative quantification of RPL11 expression vs puro_shNT; for RQ, RPS19: relative quantification of RPS19 expression vs puro_shNT; for RQ, p21: relative quantification of p21 expression vs puro_shNT; for RQ, p53: relative quantification of p53 expression vs puro_shNT
# Description: Conditionally immortalized cord blood CD34+ cells were transduced with the shRNA lentiviruses using the retronectin-transduction protocol (Clontech). Puromycin selection was performed 24-48 hours post-transduction. Cells were counted to monitor cell viability. After 12 days, which allowed for a large biomass, knockdown efficiency was analyzed. qRT-PCR was used to identify changes in mRNA, and Western blot was used to determine levels of protein depletion.
# For RNA extraction, 1×10^6 cells were harvested in 500 μL of TRIZOL reagent (Thermo Scientific), and incubated for 5 minutes at room temperature. Then, 100 μL of chloroform was added to the cells, and the mixture was vortexed and then centrifuged at 12,000× gravity for 15 minutes. The aqueous phase was transferred to fresh tubes and one volume of 70% ethanol was added. The TRIZOL Plus RNA purification Kit (Thermo Scientific) was used for the remaining extraction protocol according to the manufacturer's instructions. For the conversion of RNA to cDNA the High Capacity cDNA RT kit (Thermo Scientific) was used according to the manufacturer's instructions. The cDNA was analyzed with qRT-PCR to determine the fold change of knockdown cells using Taqman Fast PCR mix and Applied Biosystems probes (Thermo Scientific).
# shRNAs targeting RPS19, p53, or RPL11 were delivered to normal cord blood erythroblast cells using either the pLKO (constitutive) and pTRIPZ (inducible) plasmids described in Example 1. The mRNA expression of the p53 pathway proteins; progenitor factor GATA2; and differentiation factors HBB and GATA1 were measured by qRT-PCR. Cells not transduced with a shRNA as well as cells transduced with a non-targeting shRNA served as controls.
# Hematopoietic progenitor CD34^+ cells were transduced with the pTRIPZ inducible lentiviral plasmids containing p53_sh1, puro_shNT, RPL11_1, RPL11_2, RPS19_1, or RPS19_2.
# The relative expression of GATA1, GATA2, MDM2, BAX, and BAG1 were also analyzed in cells transduced with a pTRIPZ dox inducible shRNA. B-Actin was used as an internal control.
# [4] = RNA-seq, p-value≤0.05, primary human hepatocytes, the modulated genes are listed in the block
compound,measurement,setting,value
"CC(C)N(CCC(C(N)=O)(c1ccccc1)c1ccccn1)C(C)C (stereo not shown) [MT-189, Disopyramide]",Log2 fold changes in gene expression: CYP2C19,[1],0.18
same,Log2 fold changes in gene expression: CYP3A4,[1],0.03
same,significant modulation of gene expression,[2]; [4],significantly (p-value≤0.05) modulate
same,Number (#) of genes having significantly changed expression,[2],7
"CCc1oc2ccccc2c1C(=O)c1cc(Br)c(O)c(Br)c1 [MT-220, Benzbromarone]",Log2 fold changes in gene expression: CYP2C19,[1],0.57
same,Log2 fold changes in gene expression: CYP3A4,[1],0.87
same,cytotoxicity in hepatocytes,[1],cytotoxic
same,significant modulation of gene expression,[2]; [4],significantly (p-value≤0.05) modulate
same,Number (#) of genes having significantly changed expression,[2],119
"CCN1CCCC1CNC(=O)c1cc(S(N)(=O)=O)ccc1OC (stereo not shown) [MT-277, Sulpiride]",Log2 fold changes in gene expression: CYP2C19,[1],0.04
same,Log2 fold changes in gene expression: CYP3A4,[1],0
same,significant modulation of gene expression,[2]; [4],significantly (p-value≤0.05) modulate
same,Number (#) of genes having significantly changed expression,[2],8
"C#C[C@]1(O)CC[C@H]2[C@@H]3CCC4=Cc5oncc5C[C@]4(C)[C@H]3CC[C@@]21C [MT-487, Danazol]",Log2 fold changes in gene expression: CYP2C19,[1],−0.03
same,Log2 fold changes in gene expression: CYP3A4,[1],0.11
same,significant modulation of gene expression,[2]; [4],significantly (p-value≤0.05) modulate
same,Number (#) of genes having significantly changed expression,[2],5
"CCc1nn(CCCN2CCN(c3cccc(Cl)c3)CC2)c(=O)n1CCOc1ccccc1 [MT-505, Nefazodone]",Log2 fold changes in gene expression: CYP2C19,[1],−0.03
same,Log2 fold changes in gene expression: CYP3A4,[1],0.4
same,significant modulation of gene expression,[2]; [4],significantly (p-value≤0.05) modulate
same,Number (#) of genes having significantly changed expression,[2],18
"CN(C)CCC=C1c2ccccc2COc2ccccc21 [MT-723, Adapin (doxepin)]",Log2 fold changes in gene expression: CYP2C19,[1],0.18
same,Log2 fold changes in gene expression: CYP3A4,[1],0.14
same,Log2 fold changes in gene expression: ACADVL,[2],0
same,Log2 fold changes in gene expression: ACAT2,[2],−0.03
same,Log2 fold changes in gene expression: ACSL1,[2],0.04
same,Log2 fold changes in gene expression: ACSL5,[2],0.03
same,Log2 fold changes in gene expression: AGPAT2,[2],−0.05
same,Log2 fold changes in gene expression: AGTR1,[2],0.03
same,Log2 fold changes in gene expression: AHSG,[2],−0.07
same,Log2 fold changes in gene expression: ALAS1,[2],−0.01
same,Log2 fold changes in gene expression: AMACR,[2],−0.11
same,Log2 fold changes in gene expression: ARG1,[2],0.07
same,Log2 fold changes in gene expression: CA2,[2],−0.08
same,Log2 fold changes in gene expression: CA12,[2],0.29
same,Log2 fold changes in gene expression: CIDEC,[2],0.09
same,Log2 fold changes in gene expression: COL1A1,[2],−0.14
same,Log2 fold changes in gene expression: CPS1,[2],−0.04
same,Log2 fold changes in gene expression: CPT1A,[2],0.06
same,Log2 fold changes in gene expression: CPT2,[2],−0.09
same,Log2 fold changes in gene expression: CYP21A2,[2],0.08
same,Log2 fold changes in gene expression: ECH1,[2],−0.04
same,Log2 fold changes in gene expression: ENO3,[2],−0.21
same,Log2 fold changes in gene expression: ETFDH,[2],0.05
same,Log2 fold changes in gene expression: FABP1,[2],−0.08
same,Log2 fold changes in gene expression: G6PC,[2],0.03
same,Log2 fold changes in gene expression: GHR,[2],−0.05
same,Log2 fold changes in gene expression: GLA,[2],0.01
same,Log2 fold changes in gene expression: HGD,[2],0
same,Log2 fold changes in gene expression: HMGCR,[2],0.02
same,Log2 fold changes in gene expression: HMGCS2,[2],−0.04
same,Log2 fold changes in gene expression: HMOX1,[2],0.22
same,Log2 fold changes in gene expression: HOGA1,[2],0.03
same,Log2 fold changes in gene expression: HPGD,[2],0.05
same,Log2 fold changes in gene expression: IFT27,[2],0
same,Log2 fold changes in gene expression: LDHA,[2],−0.09
same,Log2 fold changes in gene expression: LPIN2,[2],0.03
same,Log2 fold changes in gene expression: MOGAT2,[2],0.01
same,Log2 fold changes in gene expression: NCF2,[2],−0.21
same,Log2 fold changes in gene expression: PCSK9,[2],0.11
same,Log2 fold changes in gene expression: POR,[2],0.1
same,Log2 fold changes in gene expression: RMRP,[2],−0.14
same,Log2 fold changes in gene expression: SLC2A2,[2],−0.04
same,Log2 fold changes in gene expression: SLC6A6,[2],0.17
same,Log2 fold changes in gene expression: SLC25A20,[2],−0.1
same,Log2 fold changes in gene expression: SLC37A4,[2],−0.17
same,Log2 fold changes in gene expression: SLC51B,[2],−0.26
same,Log2 fold changes in gene expression: SULT2A1,[2],0.03
same,Log2 fold changes in gene expression: TAT,[2],−0.1
same,Log2 fold changes in gene expression: TDO2,[2],−0.14
same,Log2 fold changes in gene expression: TMEM135,[2],0.05
same,Log2 fold changes in gene expression: TNFSF11,[2],−0.11
same,Log2 fold changes in gene expression: VLDLR,[2],0.01
same,significant modulation of gene expression,[2],significantly (p-value≤0.05) modulate
RPS19_1 (guide TAGAACCAGTTCTCATCGTA; chemistry not fully specified; listed as Homo sapiens),"RQ, BAG1",[3],1.16
same,"RQ, BAX",[3],1.57
same,"RQ, GATA1",[3],0.67
same,"RQ, GATA2",[3],1.53
same,"RQ, HBB",[3],0.50
same,"RQ, MDM2",[3],2.72
same,"RQ, RPL11",[3],1.90
same,"RQ, RPS19",[3],0.47
same,"RQ, p21",[3],5.87
same,"RQ, p53",[3],1.66
RPS19_2 (guide CTTGACGGTATCCACCCATT; chemistry not fully specified; listed as Homo sapiens),"RQ, BAG1",[3],1.08
same,"RQ, BAX",[3],1.29
same,"RQ, GATA1",[3],0.87
same,"RQ, GATA2",[3],1.23
same,"RQ, HBB",[3],0.55
same,"RQ, MDM2",[3],1.38
same,"RQ, RPL11",[3],1.46
same,"RQ, RPS19",[3],0.77
same,"RQ, p21",[3],1.73
same,"RQ, p53",[3],1.12
